According to patent US9029337B2, “Modulation of factor 7 expression” (Isis Pharmaceuticals, Inc., priority 2007, dated 2015):
Strand notation (5' to 3'): a small letter for the sugar, then the base; units joined by * are phosphorothioate-linked, units joined directly phosphodiester-linked; [ ] holds rarer units or linkages, { } end groups; capitals alone tell only the bases. e = 2'-O-(2-methoxyethyl) (MOE); [5mC] = 5-methylcytosine; d = 2'-deoxy (DNA)

system: human Factor 7 mRNA; experiment: Antisense inhibition of human Factor 7 mRNA in HepB3 cells, 50 nM antisense oligonucleotide, lipofectin; assay type: cell-based; conditions: Table 1, 50 nM, lipofectin, approximately 24 hours, relative to untreated control cells
How it was run: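 HepB3 cells were transfected by lipofectin with 50 nM antisense oligonucleotide and harvested after about 24 h. Factor 7 mRNA was measured by real-time RT-PCR (primer probe set RTS 2927 in some runs), normalized to RIBOGREEN total RNA, and reported as percent inhibition versus untreated control.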

Row | Substance | % Inhibition [%]
1 | 407652 (antisense eT*eG*eG*eG*eA*dG*d[5mC]*dT*dA*d[5mC]*dA*dG*d[5mC]*d[5mC]*dT*e[5mC]*eA*eA*eA*e[5mC]) [compound 407652] | 30
2 | 407595 (antisense eT*e[5mC]*e[5mC]*eT*eG*dA*dG*dG*d[5mC]*d[5mC]*dT*dT*dA*dG*d[5mC]*eG*eA*e[5mC]*e[5mC]*e[5mC]) [compound 407595] | 71
3 | 407660 (antisense eG*e[5mC]*eT*e[5mC]*eT*dG*dA*dA*dG*dT*dA*dG*dA*dT*dG*eA*eT*eG*e[5mC]*e[5mC]) [compound 407660] | 16
4 | 407945 (antisense eA*eA*eT*e[5mC]*eA*dT*dG*dG*dG*d[5mC]*dA*dA*d[5mC]*d[5mC]*d[5mC]*eA*eG*eT*eG*eG) [compound 407945] | 56
5 | 407957 (antisense eG*eG*e[5mC]*e[5mC]*eT*dG*dG*dG*dA*dA*d[5mC]*dT*dT*dG*d[5mC]*eA*eT*eT*eT*eA) [compound 407957] | 52
6 | 407960 (antisense eG*eT*eG*e[5mC]*e[5mC]*d[5mC]*dA*dG*dG*dA*d[5mC]*dG*dG*d[5mC]*d[5mC]*e[5mC]*eT*eG*e[5mC]*eA) [compound 407960] | 53
7 | 407911 (antisense e[5mC]*e[5mC]*e[5mC]*e[5mC]*eT*dT*dG*d[5mC]*dA*dG*dG*dA*dG*dT*d[5mC]*e[5mC]*eT*eT*eG*e[5mC]) [compound 407911] | 74
8 | 407961 (antisense eA*eA*eG*eT*eA*dG*dA*dT*dG*dA*dT*dG*d[5mC]*d[5mC]*dT*eG*eA*eG*eT*eG) [compound 407961] | 34
9 | 407938 (antisense e[5mC]*eA*e[5mC]*e[5mC]*e[5mC]*dA*dG*d[5mC]*dG*dA*dA*dG*dG*dG*dA*eG*eA*eA*eA*eT) [compound 407938] | 60
10 | 407654 (antisense e[5mC]*e[5mC]*eA*e[5mC]*eT*dG*d[5mC]*dA*dG*d[5mC]*d[5mC]*dA*dG*dG*dG*e[5mC]*e[5mC]*eT*eG*eG) [compound 407654] | 34
11 | 407917 (antisense eA*e[5mC]*eA*e[5mC]*e[5mC]*d[5mC]*d[5mC]*dA*dA*dA*dG*dT*dG*dG*d[5mC]*e[5mC]*e[5mC]*eA*e[5mC]*eG) [compound 407917] | 70

same assay, conditions: Table 6, 50 nM, lipofectin, approximately 24 hours

Row | Substance | % Inhibition [%]
12 | 422121 (antisense eG*e[5mC]*eG*e[5mC]*eG*dG*dA*dA*dG*dA*dA*dG*dG*dG*dA*e[5mC]*eG*eG*eA*eA) [compound 422121] | 43
13 | 422196 (antisense eT*eA*e[5mC]*dT*dG*dA*dG*d[5mC]*dG*d[5mC]*dG*dG*dA*dA*dG*dA*dA*eG*eG*eG) [compound 422196] | 2
14 | 422190 (antisense eG*e[5mC]*eG*d[5mC]*dG*dG*dA*dA*dG*dA*dA*dG*dG*dG*dA*d[5mC]*dG*eG*eA*eA) [compound 422190] | 12
15 | 422268 (antisense eA*eG*d[5mC]*dG*d[5mC]*dG*dG*dA*dA*dG*dA*dA*dG*dG*dG*eA*e[5mC]*eG*eG*eA) [compound 422268] | 63

same assay, conditions: gapmers targeted to nucleobases 4868 to 4899 of SEQ ID NO: 1, Table 8

Row | Substance | % Inhibition of human Factor 7 mRNA levels [%]
16 | 422218 (antisense e[5mC]*eG*eA*dG*dT*dT*d[5mC]*dT*dG*d[5mC]*dA*dG*dG*dA*dG*d[5mC]*dG*eG*e[5mC]*e[5mC]) [compound 422218] | 70

same assay, conditions: lipofectin, 50 nM antisense oligonucleotide, approximately 24 hours, Factor 7 mRNA by real-time RT-PCR (RTS 2927), relative to untreated control

Row | Substance | % Inhibition [%]
17 | 416528 (antisense eT*eG*eA*eT*eA*dA*dA*dA*d[5mC]*d[5mC]*dT*d[5mC]*dT*dG*dG*eA*e[5mC]*eA*e[5mC]*e[5mC]) [compound 416528] | 10
18 | 416569 (antisense eG*e[5mC]*e[5mC]*eT*eG*dG*dT*dG*dT*dG*d[5mC]*dA*d[5mC]*dA*d[5mC]*eA*eT*eT*eG*eT) [compound 416569] | 12
19 | 416552 (antisense eT*e[5mC]*eT*eG*e[5mC]*dA*d[5mC]*dA*dG*dG*dG*dT*dA*dG*dA*e[5mC]*e[5mC]*e[5mC]*eT*e[5mC]) [compound 416552] | 46
20 | 416554 (antisense eA*eA*eA*eG*eA*dT*d[5mC]*d[5mC]*d[5mC]*dA*d[5mC]*d[5mC]*dT*d[5mC]*dA*eA*eA*eG*eA*eG) [compound 416554] | 7
21 | 416512 (antisense eG*eA*e[5mC]*eG*eA*d[5mC]*d[5mC]*dT*dT*dT*dG*d[5mC]*dT*dG*dG*eG*eA*eG*eG*eA) [compound 416512] | 43
22 | 416440 (antisense eG*eG*eA*e[5mC]*eT*dG*dG*dA*dG*d[5mC]*dT*dG*dG*dT*d[5mC]*e[5mC]*eT*eT*eG*e[5mC]) [compound 416440] | 44
23 | 416479 (antisense eG*eA*e[5mC]*eA*eG*d[5mC]*dA*d[5mC]*dA*d[5mC]*dA*dT*dG*dG*dA*eG*eT*e[5mC]*eA*eG) [compound 416479] | 56
24 | 416430 (antisense eG*e[5mC]*eA*eG*e[5mC]*dT*d[5mC]*d[5mC]*dT*d[5mC]*d[5mC]*dA*dG*dG*dA*eA*e[5mC]*eG*e[5mC]*eG) [compound 416430] | 52
25 | 416450 (antisense eG*eG*eT*eT*eT*dG*d[5mC]*dT*dG*dG*d[5mC]*dA*dT*dT*dT*e[5mC]*eT*eT*eT*eT) [compound 416450] | 49
26 | 416537 (antisense eT*eG*eA*e[5mC]*e[5mC]*dA*d[5mC]*dT*d[5mC]*dT*dT*d[5mC]*d[5mC]*dG*dA*eG*e[5mC]*eA*eG*e[5mC]) [compound 416537] | 55
27 | 416506 (antisense e[5mC]*eT*eT*eT*eA*dA*dA*dA*dT*d[5mC]*dA*dG*dT*dT*dT*e[5mC]*eA*e[5mC]*eA*e[5mC]) [compound 416506] | 18
28 | 416466 (antisense eT*eG*eT*eG*eG*dG*d[5mC]*d[5mC]*dT*d[5mC]*d[5mC]*dA*d[5mC]*dT*dG*eT*e[5mC]*e[5mC]*e[5mC]*e[5mC]) [compound 416466] | 57
29 | 416513 (antisense e[5mC]*eT*eG*eA*eT*dG*dT*dG*dA*dA*dA*dA*d[5mC]*d[5mC]*dG*eG*e[5mC]*eA*eT*eG) [compound 416513] | 37
30 | 416502 (antisense eG*eT*eT*e[5mC]*eT*dT*dT*dG*dA*dA*dA*dA*dA*dT*dA*eA*eT*e[5mC]*e[5mC]*e[5mC]) [compound 416502] | 22
31 | 416422 (antisense eA*eG*e[5mC]*eG*eA*d[5mC]*d[5mC]*d[5mC]*d[5mC]*dG*d[5mC]*d[5mC]*dT*dG*d[5mC]*eA*eG*e[5mC]*e[5mC]*eA) [compound 416422] | 8

same assay, conditions: oligonucleotides targeted to nucleobases 11830 to 11869 of SEQ ID NO: 1 (Table 9)

Row | Substance | % Inhibition (human Factor 7 mRNA levels) [%]
32 | 422236 (antisense eA*eA*dT*dG*dG*dT*d[5mC]*dA*dG*dG*dG*d[5mC]*dT*dG*dG*eT*eT*eT*eT*eG) [compound 422236] | 44
33 | 422104 (antisense eG*eG*e[5mC]*eT*eG*dA*dG*dG*dA*dG*dA*d[5mC]*dA*dA*dT*eG*eG*eT*e[5mC]*eA) [compound 422104] | 59
34 | 422158 (antisense eA*eT*eG*dG*dT*d[5mC]*dA*dG*dG*dG*d[5mC]*dT*dG*dG*dT*dT*dT*eT*eG*eG) [compound 422158] | 49
35 | 422240 (antisense eA*eG*dA*d[5mC]*dA*dA*dT*dG*dG*dT*d[5mC]*dA*dG*dG*dG*e[5mC]*eT*eG*eG*eT) [compound 422240] | 66
36 | 422097 (antisense eG*eA*eG*eA*e[5mC]*dA*dA*dT*dG*dG*dT*d[5mC]*dA*dG*dG*eG*e[5mC]*eT*eG*eG) [compound 422097] | 59
37 | 422162 (antisense eG*eA*e[5mC]*dA*dA*dT*dG*dG*dT*d[5mC]*dA*dG*dG*dG*d[5mC]*dT*dG*eG*eT*eT) [compound 422162] | 59
38 | 422164 (antisense eG*eA*eG*dA*d[5mC]*dA*dA*dT*dG*dG*dT*d[5mC]*dA*dG*dG*dG*d[5mC]*eT*eG*eG) [compound 422164] | 64
39 | 422239 (antisense eG*eA*d[5mC]*dA*dA*dT*dG*dG*dT*d[5mC]*dA*dG*dG*dG*d[5mC]*eT*eG*eG*eT*eT) [compound 422239] | 67

same assay, conditions: oligonucleotides targeted to nucleobases 13760 to 13789 of SEQ ID NO: 1 (Table 10)

Row | Substance | % Inhibition (human Factor 7 mRNA levels) [%]
40 | 422260 (antisense eG*e[5mC]*dG*d[5mC]*d[5mC]*dA*d[5mC]*d[5mC]*d[5mC]*dG*d[5mC]*d[5mC]*dG*dG*d[5mC]*eT*e[5mC]*eT*eG*e[5mC]) [compound 422260] | 56
41 | 422261 (antisense eT*eG*d[5mC]*dG*d[5mC]*d[5mC]*dA*d[5mC]*d[5mC]*d[5mC]*dG*d[5mC]*d[5mC]*dG*dG*e[5mC]*eT*e[5mC]*eT*eG) [compound 422261] | 47

same assay, conditions: oligonucleotides targeted to nucleobases 14707 to 14732 of SEQ ID NO: 1 (Table 11)

Row | Substance | % Inhibition (human Factor 7 mRNA levels) [%]
42 | 422131 (antisense eA*eG*e[5mC]*e[5mC]*eT*dG*dA*dG*dG*d[5mC]*d[5mC]*dA*dG*d[5mC]*dA*eG*eA*eT*e[5mC]*eA) [compound 422131] | 68
43 | 422278 (antisense eG*e[5mC]*d[5mC]*dT*dG*dA*dG*dG*d[5mC]*d[5mC]*dA*dG*d[5mC]*dA*dG*eA*eT*e[5mC]*eA*e[5mC]) [compound 422278] | 64

same assay, conditions: oligonucleotides targeted to nucleobases 15098 to 15122 of SEQ ID NO: 1 (Table 12)

Row | Substance | % Inhibition (human Factor 7 mRNA levels) [%]
44 | 422211 (antisense eA*e[5mC]*eA*dG*d[5mC]*dA*d[5mC]*dA*d[5mC]*dA*dT*dG*dG*dA*dG*dT*d[5mC]*eA*eG*e[5mC]) [compound 422211] | 42
45 | 416479 (antisense eG*eA*e[5mC]*eA*eG*d[5mC]*dA*d[5mC]*dA*d[5mC]*dA*dT*dG*dG*dA*eG*eT*e[5mC]*eA*eG) [compound 416479] | 47
46 | 422134 (antisense eG*e[5mC]*eA*e[5mC]*eA*d[5mC]*dA*dT*dG*dG*dA*dG*dT*d[5mC]*dA*eG*e[5mC]*eA*eT*e[5mC]) [compound 422134] | 67
